Laboratory results as given in patent US9408853B2, “Iridium/rhodium anti-cancer compounds” (University of Warwick, priority 2010, dated 2016).
Like-named read-outs stand apart in the source and are kept apart here.

Assays:
[1] = test system: human ovarian A2780 cancer cells; experiment: Cancer cell cytotoxicity, SRB assay; format: cell-based
Procedure: Cancer Cell Cytotoxicity. After plating, human ovarian A2780 cancer cells were treated with Ir^III complexes on day 3 at concentrations ranging from 0.5 μM to 100 μM. Solutions of the Ir^III complexes were made up in 0.125% DMSO to assist dissolution. Stock solutions of the IrIII complexes were firstly prepared in DMSO to assist dissolution, and then diluted into 0.9% saline and medium. After plating 5000 A2780 cells per well on day 1, IrIII complexes were added to the cancer cells on day 3 at concentrations ranging from 0.05 μM to 100 μM. Cells were exposed to the complexes for 24 h, washed, supplied with fresh medium, allowed to grow for three doubling times (72 h), and then the protein content measured (proportional to cell survival) using the sulforhodamine B (SRB) assay.^15 […]. The standard errors are based on two independent experiments of three replicates each.

[2] = Determination of pKa* of coordinated D2O by 1H NMR pH* titration; format: physicochemical; details: for pKa (deprotonation of coordinated D2O): calculated from pKa* according to Krezel and Bal (pKa=0.929pKa*+0.42); for pKa* (deprotonation of coordinated D2O): in D2O
Procedure: pH* Measurement. pH* values (pH meter reading without correction for effects of D on glass electrode) of NMR samples in D2O were measured at ca. 298 K directly in the NMR tube, before and after recording NMR spectra, using a Corning 240 pH meter equipped with a micro combination electrode calibrated with Aldrich buffer solutions of pH 4, 7 and 10. For determination of the pKa* value of aquated complexes, complexes were dissolved in D2O and 0.98 mol equiv of AgNO3 was added. The solution was stirred for 24 h at 298 K, and AgCl was removed by filtration.
Determination of pKa* Values. […] The chemical shifts of the chelating ligands or/and methyl group of Cp* protons were plotted against pH*. The pH* titration curves were fitted to the Henderson-Hasselbalch equation, with the assumption that the observed chemical shifts are weighted averages according to the populations of the protonated and deprotonated species.
The changes in the ^1H NMR chemical shifts for the protons of the coordinated chelating ligands in compounds ZL25A, ZL54A, ZL38A, chelating ligands and methyl group in Cp* or Cp^xph in compounds ZL04A, ZL07A, ZL37A, ZL03A, and methyl group in Cp* in compound ZL01A were followed with change in pH* over a range of 2-11. The mean pKa* value was taken for each complex.
When the pH* values of the solutions were increased from about 2 to 11, the NMR peaks assigned to ZL01A, ZL03A, ZL04A, ZL07A, ZL25A, ZL37A, ZL38A and ZL54A gradually shifted to high field in the spectrum.
When the pH* values of the solutions were increased from about 2 to 10, the NMR peaks assigned to aqua complexes ZL47A, ZL49A, ZL69A and ZL74A gradually shifted to high field in the spectrum. The resulting pH titration curves were fitted to the modified Henderson-Hasselbalch equation, from which the pKa* values of the coordinated water were determined.

[3] = test system: 9-ethylguanine (9-EtG); experiment: Interactions with nucleobases: 9-EtG adduct formation (1H NMR); format: binding; details: 1 mM, 1 mol equiv 9-EtG (ZL33A: 2 mol equiv), D2O, 310 K
Procedure: (§1) Interactions with Nucleobases. The reaction of ZL01, ZL03, ZL04, ZL07, ZL25, ZL33, ZL37, ZL38, ZL43 and ZL54 and ZL33A with nucleobases typically involved addition of a solution containing 1-2 mol equiv of nucleobase in D2O, to an equilibrium solution of ZL01, ZL03, ZL04, ZL07, ZL25, ZL33, ZL37, ZL38, ZL43, ZL54 and ZL33A in a solution of 5% MeOD-d4/95% D2O (v/v). ^1H NMR spectra of these solutions were recorded at 310 K after various time intervals.
(§2) Since DNA is a potential target site for transition metal anticancer complexes,^18 nucleobase binding reactions of compounds ZL01, ZL03, ZL04, ZL07, ZL25, ZL33, ZL33A, ZL37, ZL38, ZL43 and ZL54 with nucleobase models 9-ethylguanine (9-EtG) and 9-ethyladenine (9-EtA), were investigated. Solutions of ZL01, ZL03, ZL04, ZL07, ZL25, ZL33, ZL37, ZL38, ZL43 and ZL54 (1 mM) (containing an equilibrium mixture of these complexes and their respective aqua adducts) with 1 mol equivalent of 9-EtG or 9-EtA in D2O were prepared, and ^1H NMR spectra were recorded at different time intervals.
Interactions with Nucleobases. Since DNA is a potential target site for transition metal anticancer complexes,^23 the binding of 9-ethylguanine (9-EtG) to complexes ZL47, ZL49, ZL69, ZL74 and ZL107 was studied.

[4] = test system: 9-ethyladenine (9-EtA); experiment: Interactions with nucleobases: 9-EtA adduct formation (1H NMR); format: binding; details: 1 mM, 1 mol equiv 9-EtA, D2O, 310 K
Procedure: as §1, §2

[5] = 24 h exposure, 72 h recovery, SRB, read-out: A2780 IC50
[6] = screening test, read-out: A2780 IC50, data from screening test

Compound	IC50 [1, 5] [µM]	pKa (deprotonation of coordinated D2O) [2]	pKa* (deprotonation of coordinated D2O) [2]	further results
Cc1c(C)c(-c2ccccc2)[c-](C)c1C.NCCN.[Cl-].[Ir+3].c1ccc([B-](c2ccccc2)(c2ccccc2)c2ccccc2)cc1 [ZL31, [(η^5-C5Me4C6H5)IrCl(H2NCH2CH2NH2—N,N)]BPh4]	17			
Cc1c(C)c(C)[c-](-c2ccccc2)c1C.F[P-](F)(F)(F)(F)F.Oc1cccnc1-c1ncccc1O.[Cl-].[Ir+3] [ZL45, [(η^5-C5Me4C6H5)Ir(bipy(OH)2)Cl]PF6]	7.2			
Cc1c(C)c(C)[c-](C)c1C.[Cl-].[Ir+3].[O-]c1cccnc1-c1ncccc1O [ZL44, [(η^5-C5Me5)Ir(bipy(OH)O)Cl]]	17.2			cytotoxic activity towards A2780 (in words) [1]: moderate or high activity
[(η^5-C5Me5)Ir(2-phpy)(D2O)]^+ [ZL47A]		8.75	8.97	
Cc1c(C)c(C)[c-](C)c1C.Cc1ccnc(-c2cc(C)ccn2)c1.F[P-](F)(F)(F)(F)F.[Cl-].[Ir+3] [ZL55, [(η^5-C5Me5)Ir(bipy(Me)2)Cl]PF6]	> 100			
CN(C)c1ccc(N=Nc2ccccn2)cc1.Cc1c(C)c(C)[c-](C)c1C.F[P-](F)(F)(F)(F)F.[Cl-].[Ir+3] [ZL64, [(η^5-C5Me5)Ir(azpy-NMe2)Cl]PF6]				IC50 [1, 6]: < 30 µM
Cc1c(C)c(C)[c-](-c2ccc(-c3ccccc3)cc2)c1C.[Cl-].[Cl][Ir+2].c1ccc2nc3c4cccnc4c4ncccc4c3nc2c1 [ZL95, [(η^5-C5Me4C6H4C6H5Pr(dppz)Cl]Cl]				IC50 [1, 6]: < 5 µM
Cc1c(C)c(-c2ccc(-c3ccccc3)cc2)[c-](C)c1C.F[P-](F)(F)(F)(F)F.[Ir+3].[c-]1ccccc1-c1ccccn1.c1ccncc1 (stereo not shown) [ZL105, [(η^5-C5Me4C6H4C6H5)Ir(2-phpy)(py)]PF6]	0.12 ± 0.02			
Cc1c(C)c(-c2ccc(-c3ccccc3)cc2)[c-](C)c1C.Fc1c[c-]c(-c2ccccn2)c(F)c1.[Cl-].[Ir+3] (stereo not shown) [ZL103, [(η^5-C5Me4C6H4C6H5)Ir(2-dfphpy)Cl]]	0.67 ± 0.11			
Cc1c(C)c(C)[c-](C)c1C.[2H]O[2H].[Ir+3].c1cnc2c(c1)ccc1cccnc12 [ZL07A, [(η^5-C5Me5)Ir(phen)OD2]^2+]		7.74	7.88	
CCC[c-]1c(C)c(C)c(C)c1C.[Cl-].[Ir+3].[c-]1ccccc1-c1ccccn1 [ZL100, [(η^5-C5Me4C3H7)Ir(2-phpy)Cl]]				IC50 [1, 6]: < 10 µM
[(η^5-C5Me4C6H5)Ir(phen)(H2O)]^2+ [ZL33A]	6.7			Reaction with 9-EtG, extent of adduct formation ([3]; 10 min): 65%; Reaction with 9-EtG, extent of adduct formation ([3]; 24 h): 73%; Reaction with 9-EtA, extent of adduct formation ([4]; 10 min): 0%; Reaction with 9-EtA, extent of adduct formation ([4]; 24 h): 0%
[(η^5-C5Me4C6H4C6H5)Ir(bipy)OD2]^2+ [ZL25A]		6.63	6.68	
[(η^5-C5Me4C6H5)Ir(pico)OD2]^+ [ZL38A]		7.62	7.75	
Cc1c(C)c(C)[c-](C)c1C.[2H]O[2H].[Ir+3].c1ccc(-c2ccccn2)nc1 [ZL04A, [(η^5-C5Me5)Ir(bipy)OD2]^2+]		6.86	6.94	
[(η^5-C5Me4C6H4C6H5)Ir(2-phpy)(D2O)]^+ [ZL49A]		8.31	8.50	

Compound	IC50 [1, 5] [µM]	pKa (deprotonation of coordinated D2O) [2]	pKa* (deprotonation of coordinated D2O) [2]	further results
Cc1c(C)c(C)[c-](-c2ccccc2)c1C.Cc1ccnc(-c2cc(C)ccn2)c1.F[P-](F)(F)(F)(F)F.[Cl-].[Ir+3] [ZL57, [(η^5-C5Me4C6H5)Ir(bipy(Me)2)Cl]PF6]	9.2			
[(η^5-C5Me5)Ir(2-dfphpy)(D2O)]^+ [ZL74A]		8.32	8.51	
[(η^5-C5Me5)Ir(tpy)(D2O)]^+ [ZL69A]		8.87	9.10	
Cc1c(C)c(C)[c-](-c2ccccc2)c1C.F[P-](F)(F)(F)(F)F.[Cl][Ir+2]1[N]2C=CC=c3c2c2c(c4nccnc34)=CC=C[N]21 [ZL89, [(η^5-C5Me4C6H5)Ir(dpq)Cl]PF6]				IC50 [1, 6]: < 5 µM
Cc1c(C)c(C)[c-](-c2ccc(-c3ccccc3)cc2)c1C.[Cl-].[Ir+3].[O-]c1cccnc1-c1ncccc1O [ZL46, {(η^5-C5Me4C6H4C6H5)Ir[bipy(OH)(O)]Cl}]	2.8			
Cc1c(C)c(C)[c-](C)c1C.[Cl-].[Ir+3].[c-]1ccccc1C=Nc1ccccc1 [ZL51, [(η^5-C5Me5)Ir{C6H4-2-C(H)═NPh-κC,N}Cl]]	5			cytotoxic activity towards A2780 (in words) [1]: moderate or high activity
[(η^5-C5Me4C6H4C6H5)Ir(phen)OD2]^2+ [ZL54A]		7.38	7.50	
CC(=O)C=C(C)[O-].Cc1c(C)c(C)[c-](C)c1C.[Cl-].[Ir+3] [ZL02, [(η^5-C5Me5)Ir(acac)Cl]]	> 100			
CN(C)c1ccc(N=Nc2ccccn2)cc1.Cc1c(C)c(-c2ccccc2)[c-](C)c1C.F[P-](F)(F)(F)(F)F.[Cl-].[Ir+3] [ZL109, [(η^5-C5Me4C6H5)Ir(azpy-NMe2)Cl]PF6]				IC50 [1, 6]: < 10 µM
Cc1c(C)c(C)[c-](-c2ccccc2)c1C.[Cl-].[Cl][Ir+2].c1ccc2nc3c4cccnc4c4ncccc4c3nc2c1 [ZL93, [(η^5-C5Me4C6H5)Ir(dppz)Cl]Cl]				IC50 [1, 6]: < 5 µM
Cc1c(C)c(C)[c-](C)c1C.NCCN.[2H]O[2H].[Ir+3] [ZL01A, [(η^5-C5Me5)IrCl(en)OD2]^2+]		7.54	7.66	
[(η^5-C5Me5)Ir(pico)OD2]^+ [ZL03A]		7.99	8.15	
Cc1c(C)c(C)[c-](-c2ccc(-c3ccccc3)cc2)c1C.[Cl-].[Cl][Ir+2].c1cnc2c(c1)c1nccnc1c1cccnc12 [ZL94, [(η^5-C6Me4C6H4C6H5)Ir(dpq)Cl]Cl]				IC50 [1, 6]: < 5 µM
[(η^5-C5Me4C6H5)Ir(bipy)OD2]^2+ [ZL37A]		6.28	6.31	
Cc1c(C)c(C)[c-](-c2ccc(-c3ccccc3)cc2)c1C.Cc1ccnc(-c2cc(C)ccn2)c1.F[P-](F)(F)(F)(F)F.[Cl-].[Ir+3] [ZL59, [(η^5-C5Me4C6H4C6H5)Ir(bipy(Me)2)Cl]PF6]	0.51			
